Results reported in US20260355328A1, “A complex comprising a cargo and a targeting moiety binding intelectin-1” (Stichting Radboud universitair medisch centrum, priority 2022, published 2026).
Residues, ends and D or L forms follow the SMILES beside them. *: point of attachment. DOTA = O=C(O)CN1CCN(CC(=O)O)CCN(CC(=O)*)CCN(CC(=O)O)CC1

Experiments:
[1] = Biodistribution of 111In-DOTA-labelled hLF variants after intravenous injection; assay type: in vivo, C57BI/6 mice; conditions: i.v., 4 hours
Experimental: Female and male 10-12-weeks-old C57BI/6 mice (Charles River) were injected via the tail vein with 50 μl of 200 μM 111 In-DOTA-labelled hLF peptides. […] Organs were collected 4 hours after injection, and radioactivity was measured in a gamma-counter. The percentage injected dose per gram of tissue (% ID/gram) was determined for each tissue and ratios between organs were calculated.

EOMA = assay: Uptake in multiple cell lines (Table 2): EOMA; assay type: cell-based; conditions: fluorescein-labeled peptide, confocal microscopy, EOMA (mouse)
hGEnC = assay: Uptake in multiple cell lines (Table 2): hGEnC; assay type: cell-based; conditions: fluorescein-labeled peptide, confocal microscopy, hGEnC (human)
ITLN-1 = biological target: T1, ITLN-1 (Mus musculus, UniProt O88310); assay: Uptake by mGEnC after downregulation of ITLN-1 with siRNA; assay type: cell-based; conditions: peptides at 5 μM, FIG. 2E
T1 construct: ITLN-1 siRNA versus control siRNA
Experimental: (§1) Conditionally immortalized mouse glomerular endothelial cells (mGEnC) were cultured as previously described (Rops et al. Kidney Int. 2004; 66 (6): 2193-201). Cells were incubated in their respective medium with 10% FCS containing fluorescein-labelled peptides at 5 μM for 20 minutes at 37 °C. In some cases, cells were activated for 16 hours with 10 ng/ml mouse TNFα (Sigma), or co-incubated with 100 μg/ml Alexa Fluor 633-labeled transferrin (Invitrogen Molecular Probes). Pre-treatment with ITLN-1 or control siPool siRNA (siTools Biotech) was performed according to the manufacturer's protocol. Subsequently, cells were detached with trypsin/EDTA and analysed by flow cytometry on a FACSCalibur Flow cytometer (BD Biosciences). For immunostaining, cells or 5-μm cryosections of mouse kidney were fixed for 10 minutes with 4% paraformaldehyde, and in the indicated cases permeabilized with 0.3% Triton X-100 in PBS. Subsequently, cells and cryosections were stained for 1 hour with anti-intelectin-1 (R&D Systems) or anti-LRP-1 (Abcam) antibodies, and after washing incubated for 1 hour with the appropriate Alexa Fluor-labelled secondary antibody (Invitrogen Molecular Probes). Cells and cryosections were analyzed by confocal laser-Scanning microscopy was performed using a TCS SP5 confocal microscope (Leica Microsystems).

HUVEC = assay: Uptake in multiple cell lines (Table 2): HUVEC; assay type: cell-based; conditions: fluorescein-labeled peptide, confocal microscopy, HUVEC (human)
HeLa = assay: Uptake in multiple cell lines (Table 2): HeLa; assay type: cell-based; conditions: fluorescein-labeled peptide, confocal microscopy, HeLa (human)
Experimental: (§2) Conditionally immortalized mouse glomerular endothelial cells (mGEnC) were cultured as previously described (Rops et al. Kidney Int. 2004; 66 (6): 2193-201). HeLa cells were employed as a frequently used model cell line and were cultured in DMEM/F12 medium containing 10% fetal calf serum (FCS). For studying uptake, cells were incubated in their respective medium with 10% FCS containing fluorescein-labelled peptides at the indicated concentrations for 20 minutes at 37 °C. In some cases, cells were activated for 16 hours with 10 ng/ml mouse TNFα (Sigma), or co-incubated with Alexa Fluor 633-labeled transferrin (Invitrogen Molecular Probes). Subsequently, cells were washed with PBS and analysed using confocal laser-scanning microscopy on a TCS SP5 confocal microscope (Leica Microsystems), or detached by trypsin/EDTA and analysed on a FACSCalibur Flow cytometer (BD Biosciences) by measuring 20,000 cells.
as §1, with “Subsequently, cells and cryosections were stained for 1 hour with anti-intelectin-1 (R&D Systems) or anti-LRP-1 (Abcam) antibodies, and after washing incubated for 1 hour with the appropriate Alexa Fluor-labelled secondary antibody (Invitrogen Molecular Probes).” left out

mGEnC treated with TNFα = assay: Uptake by mGEnC after activation with TNFα; assay type: cell-based; conditions: 10 ng/ml mouse TNFα 16 hours
Experimental: as §2, §1

HeLa cells = assay: Uptake of fluorescein-labelled peptides by HeLa cells (flow cytometry); assay type: cell-based, human; conditions: FIG. 1B
Experimental: as §2

mGEnC = assay: Uptake in multiple cell lines (Table 2): mGEnC; assay type: cell-based; conditions: fluorescein-labeled peptide, confocal microscopy, mGEnC (mouse)
Experimental: as §2
as §1, with “Subsequently, cells and cryosections were stained for 1 hour with anti-intelectin-1 (R&D Systems) or anti-LRP-1 (Abcam) antibodies, and after washing incubated for 1 hour with the appropriate Alexa Fluor-labelled secondary antibody (Invitrogen Molecular Probes).” left out

Podocytes = assay: Uptake in multiple cell lines (Table 2): Podocytes; assay type: cell-based; conditions: fluorescein-labeled peptide, confocal microscopy, Podocytes (mouse)
Experimental: as §2
as §1, with “Subsequently, cells and cryosections were stained for 1 hour with anti-intelectin-1 (R&D Systems) or anti-LRP-1 (Abcam) antibodies, and after washing incubated for 1 hour with the appropriate Alexa Fluor-labelled secondary antibody (Invitrogen Molecular Probes).” left out

[2] = Biodistribution of Cy5.5-hLF in LPS-induced inflammation mouse model; assay type: in vivo, C57BI/6 mice; conditions: for organ with highest signal: LPS-treated and non-treated mice; for localization in the glomeruli: kidney of LPS-treated mice
Experimental: At the start, 8- to 10-week-old C57BI/6 mice (Charles River) received an intraperitoneal injection with either 100 μl of 2 mg/kg LPS in 5% glucose solution, or only 5% glucose solution. After 24 hours, mice were injected with 50 μl of 200 μM Cy5.5-labelled peptide. Assuming a blood volume of 1.2 ml this would theoretically result in a concentration of ~8.5 μM in the circulation. After 4 hours, organs were perfused with phosphate buffer, followed by 4% PFA. Organs were removed and peptide distribution was analysed using the In Vivo Imaging System (IVIS; Perkin Elmer). Organs were then fixed by overnight incubation in 4% PFA, followed by overnight incubation in 30% sucrose. Subsequently, organs were frozen for analysis by confocal laser-Scanning microscopy using a TCS SP5 confocal microscope (Leica Microsystems). Glomerular and tubular regions were selected in microscopical pictures from which the mean fluorescence intensity was determined by ImageJ software.

[3] = system: heparan sulphate on mGEnC; assay: Peptide uptake by mGEnC after removal of heparan sulphate (heparinases); assay type: cell-based, mouse; conditions: 5 μM, FIG. 1D
Experimental: (D) Digestion of heparan sulphate from the cell surface has a limited effect on the uptake of lactoferrin-derived peptides (5 μM). Percentage of uptake for heparan sulphate-cleaved compared to undigested cells is shown.
as §2
In order to further substantiate that uptake of hLF occurred by a mechanism different of the one typically observed for CPPs, we addressed the role of heparan sulphate proteoglycans (HSPGs).

[4] = system: mouse glomerular endothelial cells (mGEnC); assay: Uptake of fluorescein-labelled peptides by mGEnC (flow cytometry); assay type: cell-based; conditions: different concentrations, 20 minutes at 37 °C, FIG. 1A
Experimental: as §2

[5] = Biodistribution of full-length lactoferrin, lactoferricin and hLF-6 in LPS-challenged mice (IVIS); assay type: in vivo; conditions: fluorescent label, i.v., 2 h
Experimental: Lactoferrin and lactoferricin are cloned in an expression plasmid containing the C-terminal Sortase-sequence protein-LPETG-HHHHHH. LPETGHHHHHH is SEQ ID NO: 98. Next, the protein is expressed overnight in E. coli and purified from sonicated bacterial cell lysates by Ni-NTA beads using 400 mM imidazole to elute the proteins. After overnight dialysis, full-length lactoferrin and hLF-6 are labelled by means of a Sortase exchange reaction on the C-terminus with a fluorescent dye (Alexa647 or Cy5.5) for 2 h at 4 °C using a fluorescently labelled donor peptide (formula:biotin-GSSG-LPETG-label or biotin-GSSG-LPETG-PEG40k-label) as substrate GSSGLPETG is SEQ ID NO: 99. Excess donor peptide is removed by means of streptavidin binding of the biotin tag on the N-terminus of the donor peptide. Next, the purified labelled protein/peptide is injected into LPS-challenged mice via intravenous injection in the tail vein. Mice are sacrificed after 2 h, and organs harvested for imaging by IVIS. Biodistribution is quantified for each organ, and relative distribution is shown.

T1 sequence (O88310 19-298): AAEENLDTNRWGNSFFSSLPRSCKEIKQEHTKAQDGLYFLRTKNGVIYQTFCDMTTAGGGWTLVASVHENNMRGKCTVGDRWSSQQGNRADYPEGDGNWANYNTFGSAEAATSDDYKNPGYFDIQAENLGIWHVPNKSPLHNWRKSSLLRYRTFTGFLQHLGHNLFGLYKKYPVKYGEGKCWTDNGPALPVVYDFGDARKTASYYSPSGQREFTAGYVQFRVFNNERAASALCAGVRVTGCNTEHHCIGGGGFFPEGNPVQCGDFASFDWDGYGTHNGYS

Compound | Uptake (Table 2) (EOMA) | Uptake (Table 2) (hGEnC) | uptake after ITLN-1 siRNA compared to control siRNA (ITLN-1) | Uptake (Table 2) (HUVEC) | Uptake (Table 2) (HeLa) | uptake in HeLa cells (HeLa cells) | Uptake (Table 2) (mGEnC) | Uptake (Table 2) (Podocytes) | effect of TNFα treatment on uptake (mGEnC treated with TNFα) | also measured
CC(C)[C@H](NC(=O)[C@H](CCCCN)NC(=O)[C@H](CCCNC(=N)N)NC(=O)CN1CCN(CC(=O)O)CCN(CC(=O)O)CCN(CC(=O)O)CC1)C(=O)N[C@@H](CCCNC(=N)N)C(=O)NCC(=O)N1CCC[C@H]1C(=O)N1CCC[C@H]1C(N)=O [^111In-DOTA-hLF-7, ^111In-DOTA-RKVRGPP-NH2, metal not drawn] ({DOTA}-RKVRGPP-NH2) |  |  |  |  |  |  |  |  |  | kidney/liver ratio (in words) [1]: still increased; localization to the kidney ([1]; FIG. 5): reduced distribution to the kidney; localization to the liver and spleen ([1]; FIG. 5): reduced distribution to the liver and spleen
CC[C@H](C)[C@H](NC(=O)[C@H](CCCCN)NC(=O)[C@@H](NC(=O)[C@H](CCC(N)=O)NC(=O)[C@@H](N)CCCNC(=N)N)[C@@H](C)CC)C(=O)N[C@@H](Cc1c[nH]c2ccccc12)C(=O)N[C@@H](Cc1ccccc1)C(=O)N[C@@H](CCC(N)=O)C(=O)N[C@@H](CC(N)=O)C(=O)N[C@@H](CCCNC(=N)N)C(=O)N[C@@H](CCCNC(=N)N)C(=O)N[C@@H](CCSC)C(=O)N[C@@H](CCCCN)C(=O)N[C@@H](Cc1c[nH]c2ccccc12)C(=O)N[C@@H](CCCCN)C(=O)N[C@@H](CCCCN)C(N)=O [penetratin, reference compound] | Low | Low | not affected | High | High | show uptake | Low | High |  | uptake after TNFα treatment by confocal microscopy (mGEnC treated with TNFα): barely detectable; increase of uptake after TNFα treatment (mGEnC treated with TNFα; 5 μM, FIG. 1E): 50-100%
Cy5.5-KCFQWQRNMRKVRGPPVSCIKR-NH2 ({Cy5.5}-KCFQWQRNMRKVRGPPVSCIKR-NH2; cysteine pairing not given here) [Cy5.5-hLF] |  |  |  |  |  |  |  |  |  | organ with highest signal ([2]; IVIS): predominant distribution in kidney and liver; organ with highest signal ([2]; IVIS, listed as Cy5.5-labeled hLF): highest signal for the peptide was present in the kidneys, followed by the liver; biodistribution to the kidney with LPS-induced inflammation ([2]; IVIS, i.v., 4 hours, LPS-treated mice, FIG. 4A): increase biodistribution to the kidney; urinary excretion (urine colour) ([2]; all injected mice): Urine was coloured by excreted Cy5.5-labelled peptide in all mice; fluorescence in liver, lung and spleen ([2]; confocal microscopy, FIG. 4B): much lower fluorescence; localization to the tubules, LPS-treated versus untreated ([2]; confocal microscopy, FIG. 4B): similar; localization in the glomeruli ([2]; confocal microscopy, FIG. 4B): in glomeruli only in LPS-treated mice; localization in the glomeruli ([2]; confocal microscopy, FIG. 4B, listed as Cy5.5-labeled hLF): clearly pronounced; detection in the liver ([2]; histology of cryosections): singular cells appeared weakly positive; detection in the spleen ([2]; histology of cryosections): could hardly be detected
KCLRWQNEMRKVGGPPLSCIKR [mLF, mouse variant of hLF] | High | High | reduced uptake | High | Low | only a minimal uptake and not | High | High | increased uptake | decrease in uptake after removal of heparan sulphate [3]: ~ 20%; uptake in mGEnC [4]: uptake occurred similarly to hLF
RKVRGPPVSCIKRDS [hLF-6] |  |  |  |  |  |  |  |  |  | accumulation in the kidney compared to lactoferrin and lactoferricin [5]: significantly greater accumulation in the kidney
transferrin: Alexa Fluor 633-labeled transferrin, marker for clathrin-mediated endocytosis [reference compound] |  |  | not affected |  |  |  |  |  | not significantly affected | 
